Like-named read-outs stand apart in the source and are kept apart here.
System: human multiple myeloma cell line, OPM-2
Assay: Cell viability assay (OPM-2 10 FBS), CellTiter-Glo
Type: cell-based
Procedure, shortened: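 Cells were seeded at 3000 cells/well in RPMI 1640 with 10% FBS and exposed to serially diluted compounds for 16 h at 37 °C, 5% CO2.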

[1] = Homo sapiens, OPM-2, 16 h, read-out: OPM-2 10% FBS IC50 IP, OPM-2 cells, 10% FBS, 16 h, CellTiter-Glo

| Compound | IC50 [1] | IC50 (read-out: OPM-2 10% FBS IC50 IP, OPM-2 cells, 10% FBS, 16 h, CellTiter-Glo) |
| --- | --- | --- |
| CO[C@@]1(CC(=O)C2CC2)/C=C/C[C@H](C)[C@@H](C)S(=O)(=O)NC(=O)c2ccc3c(c2)N(C[C@@H]2CC[C@H]21)C[C@@]1(CCCc2cc(Cl)ccc21)CO3 [Example 100443, (1S,3′R,6′R,7′S,8′E,11′S,12′R)-6-chloro-7′-(2-cyclopropyl-2-oxoethyl)-7′-methoxy-11′,12′-dimethyl-3,4-dihydro-2H,15′H-spiro[naphthalene-1,22′-[20]oxa[13]thia[1,14]diazatetracyclo [14.7.2.0~3,6~.0~19,24~]pentacosa[8,16,18,24]tetraen]-15′-one 13′,13′-dioxide] | 156 nM | – |
| C[C@@H]1[C@@H](C)C/C=C/[C@](O)(C#CCCc2ccccn2)[C@@H]2CC[C@H]2CN2C[C@@]3(CCCc4cc(Cl)ccc43)COc3ccc(cc32)C(=O)NS1(=O)=O [Example 100455, (1S,3′R,6′R,7′R,8′E,11′S,12′R)-6-chloro-7′-hydroxy-11′,12′-dimethyl-7′-(4-(2-pyridinyl)-1-butyn-1-yl)-3,4-dihydro-2H,15′H-spiro[naphthalene-1,22′-[20]oxa[13]thia[1,14]diazatetracyclo [14.7.2.0~3,6~.0~19,24~]pentacosa[8,16,18,24]tetraen]-15′-one 13′,13′-dioxide] | 140 nM | – |
| CO[C@@]1(C#CCCN2CCS(=O)(=O)CC2)/C=C/C[C@H](C)[C@@H](C)S(=O)(=O)NC(=O)c2ccc3c(c2)N(C[C@@H]2CC[C@H]21)C[C@@]1(CCCc2cc(Cl)ccc21)CO3 [Example 100456, (1S,3′R,6′R,7′S,8′E,11′S,12′R)-6-chloro-7′-(4-(1,1-dioxido-4-thiomorpholinyl)-1-butyn-1-yl)-7′-methoxy-11′,12′-dimethyl-3,4-dihydro-2H,15′H-spiro[naphthalene-1,22′-[20]oxa[13]thia[1,14]diazatetracyclo [14.7.2.0~3,6~.0~19,24~]pentacosa[8,16,18,24]tetraen]-15′-one 13′,13′-dioxide] | – | 1230 nM |
| COC[C@@]1(OC)/C=C/C[C@H](C)[C@@H](C)S(=O)(=O)NC(=O)c2ccc3c(c2)N(C[C@@H]2CC[C@H]21)C[C@@]1(CCCc2cc(Cl)ccc21)CO3 [Example 100464, (1S,3′R,6′R,7′R,8′E,11′S,12′R)-6-chloro-7′-methoxy-7′-(methoxymethyl)-11′,12′-dimethyl-3,4-dihydro-2H,15′H-spiro[naphthalene-1,22′-[20]oxa[13]thia[1,14]diazatetracyclo [14.7.2.0~3,6~.0~19,24~]pentacosa[8,16,18,24]tetraen]-15′-one 13′,13′-dioxide] | 1530 nM | – |
| CO[C@@]1(CC(=O)NCCO)/C=C/C[C@H](C)[C@@H](C)S(=O)(=O)NC(=O)c2ccc3c(c2)N(C[C@@H]2CC[C@H]21)C[C@@]1(CCCc2cc(Cl)ccc21)CO3 [Example 100465, 2-((1S,3′R,6′R,7′S,8′E,11′S,12′R)-6-chloro-7′-methoxy-11′,12′-dimethyl-13′,13′-dioxido-15′-oxo-3,4-dihydro-2H-spiro[naphthalene-1,22′-[20]oxa[13]thia[1,14]diazatetracyclo [14.7.2.0~3,6~.0~19,24~]pentacosa[8,16,18,24]tetraen]-7′-yl)-N-(2-hydroxyethyl)acetamide] | 729 nM | – |
| C=C(C)C(=O)C[C@]1(OC)/C=C/C[C@H](C)[C@@H](C)S(=O)(=O)NC(=O)c2ccc3c(c2)N(C[C@@H]2CC[C@H]21)C[C@@]1(CCCc2cc(Cl)ccc21)CO3 [Example 100476, (1S,3′R,6′R,7′S,8′E,11′S,12′R)-6-chloro-7′-methoxy-11′,12′-dimethyl-7′-(3-methyl-2-oxo-3-buten-1-yl)-3,4-dihydro-2H,15′H-spiro[naphthalene-1,22′-[20]oxa[13]thia[1,14]diazatetracyclo [14.7.2.0~3,6~.0~19,24~]pentacosa[8,16,18,24]tetraen]-15′-one 13′,13′-dioxide] | 1340 nM | – |
